# In patent US20230365533A1, “BICYCLOHEPTANE PYRROLIDINE OREXIN RECEPTOR AGONISTS” (MERCK SHARP & DOHME CORP., priority 2021, published 2023):
# Target: T1, human OX2R (Homo sapiens, UniProt O43614)
# T1 construct: expressed in transfected cells; host or cells: CHO (Chinese hamster ovary) cells, grown under G418 selection
# T1 sequence (O43614 1-444): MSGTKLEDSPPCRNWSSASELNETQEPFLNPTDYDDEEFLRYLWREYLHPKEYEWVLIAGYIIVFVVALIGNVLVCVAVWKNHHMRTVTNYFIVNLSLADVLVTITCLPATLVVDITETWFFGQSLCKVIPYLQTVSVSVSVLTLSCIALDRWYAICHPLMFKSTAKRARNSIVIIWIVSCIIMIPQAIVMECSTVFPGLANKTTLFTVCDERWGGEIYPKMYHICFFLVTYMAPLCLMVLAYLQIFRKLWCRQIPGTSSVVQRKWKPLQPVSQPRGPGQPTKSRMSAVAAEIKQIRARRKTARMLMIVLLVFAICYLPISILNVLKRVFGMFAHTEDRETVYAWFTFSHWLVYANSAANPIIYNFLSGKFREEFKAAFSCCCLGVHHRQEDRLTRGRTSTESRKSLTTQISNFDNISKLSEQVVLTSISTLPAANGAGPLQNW
# Experiment: IPOne (IP-1) orexin receptor agonist assay in CHO cells expressing human OX2R
# Assay type: cell-based
# Settings: CHO, percent of mean max effect of a reference compound at 1 uM with 100% activity vs Orexin A, human OX2R
# Description: The utility of the compounds in accordance with the present invention as orexin receptor OX1R and/or OX2R agonists may be readily determined without undue experimentation by methodology well known in the art. Both the OX1R and/or OX2R G-coupled protein receptors (GPCRs) couple through the Gaq signaling pathway, which ultimately promotes calcium mobilization via inositol triphosphate (IP3) production. The half-life of IP-3 is relatively short, being rapidly metabolized to inositol monophosphate (IP-1), which can be readily detected using a commercially available assay kit (IP-One; Cisbio; cat #621PAPEC) coupled with a cell line expressing the target receptor(s) of interest. The utility of the compounds in accordance with the present invention as orexin receptor OX1R and/or OX2R agonists may be determined utilizing this assay.
# In a typical experiment, the OX1 and OX2 receptor agonist activity is determined in accordance with the following general experimental method. Chinese hamster ovary (CHO) cells expressing human OX1R and/or the human OX2R were grown in Iscove's modified DMEM containing glutaMAX™, 1% G418, 100 U/mL penicillin, 100 μg/mL streptomycin and 10% heat-inactivated qualified fetal bovine serum (FBS). The OX2R cells were seeded at 10,000 cells/well/50 μL and the OX1R cells were seeded at 20,000 cells/well/50 μL into 384-well white tissue culture plates (Greiner; cat #781080). All cell/media reagents were from GIBCO-Invitrogen Corp. The seeded cell plate(s) were incubated at 37° C. with 5% CO2 and 85% humidity for 20-24 hours. On the day of the assay, assay-ready compound plates were prepared using an acoustic liquid handler (ECHO; Labcyte), which dispensed sufficient volume of test compound stock (10 mM in DMSO) or 100% DMSO to prepare 10 point, ½-log dilutions in a final volume of 202.5 nL/well in all test wells of a 384-well diamond plate (Labcyte). Following completion of assay-ready plates, importantly, the next three steps were performed with minimal delay: 1) 20 μl of 1×stimulation buffer was added to the compound plate using a Multidrop Combi (small cassette, Thermo Fisher Scientific cat #24073290); 2) culture medium was removed from the cell plate using the Bluewasher plate washer (gentle spin; BlueCatBio); 3) 14 μl of compound/stimulation buffer mixture was added to the cell plate using a Bravo liquid handler (Agilent) prior to incubating cell plates at 37° C. with 5% CO2 and 85% humidity for 1 or 2 hours (OX1R and OX2R, respectively). During this incubation, IP-one detection reagents were prepared (38:1:1 lysis buffer:D2:AB-cryptate reagents). Six μL of mixed detection reagents were added to the cell plate using a Multidrop Combi (small cassette, Thermo Fisher Scientific cat #24073290) and incubated 60 minutes at room temperature in the dark. Fluorescence signal was detected using an Envision plate reader (Perkin Elmer) [LANCE/DELFIA Dual Enh (Em: APC 665; Ex: Cy5 620)].
# For each compound, data were fit to a four parameter logistic fit (ActivityBase software) and the EC50 was reported as the inflection point of the resulting curve. Percent effect for each test compound was determined as the percentage of sample raw value/mean max effect, where the mean max effect was derived from the mean raw value of 32 control wells per assay plate (using Orexin A (cat #003-30) at 1 μM for human OX1R and a reference compound at 1 uM with 100% activity previously established by comparison to Orexin A for human OX2R). The intrinsic orexin receptor agonist activity of a compound which may be used in the present invention may be determined by these assays.
row,Emax [%],Structure (SMILES)
1,100,"COC(=O)N1[C@H](C)C[C@H](NS(=O)(=O)N(C)C)[C@@H]1COC1CCC2(c3ncc(F)cn3)CC2C1 (stereo partly drawn) [Example 169, methyl (2R,3S,5R)-3-((N,N-dimethylsulfamoyl)amino)-2-(((6-(5-fluoropyrimidin-2-yl)bicyclo[4.1.0]heptan-3-yl)oxy)methyl)-5-methylpyrrolidine-1-carboxylate]"

# Same assay, conditions: IPOne assay, CHO cells expressing human OX2R, 2 hours incubation; read-out: hoX2R_IP IC50
row,Structure (SMILES),IC50 [nM]
1,"COC(=O)N1[C@H](C)C[C@H](NS(=O)(=O)C(C)C)[C@@H]1CO[C@H]1CC[C@@]2(c3ncc(F)cn3)C[C@H]2C1 [Example 38, methyl (2R,3S,5R)-2-((((1S,3S,6R)-6-(5-fluoropyrimidin-2-yl)bicyclo[4.1.0]heptan-3-yl)oxy)methyl)-5-methyl-3-((1-methylethyl)sulfonamido)pyrrolidine-1-carboxylate]",0.9
2,"COC(=O)N1[C@H](C)C[C@H](NS(=O)(=O)N(C)C)[C@@H]1COC1CCC2(c3ccc(C#N)cc3)CC2C1 (stereo partly drawn) [Example 5, methyl (2R,3S,5R)-2-(((6-(4-cyanophenyl)bicyclo[4.1.0]heptan-3-yl)oxy)methyl)-3-((N,N-dimethylsulfamoyl)amino)-5-methylpyrrolidine-1-carboxylate]",278
3,"COC(=O)N1[C@H](C)C[C@H](NS(=O)(=O)N(C)C)[C@@H]1COC1CCC2(c3cc(F)cc(F)c3)CC2C1 (stereo partly drawn) [Example 4, methyl (2R,3S,5R)-2-(((6-(3,5-difluorophenyl)bicyclo[4.1.0]heptan-3-yl)oxy)methyl)-3-((N,N-dimethylsulfamoyl)amino)-5-methylpyrrolidine-1-carboxylate]",604
4,"COC(=O)N1[C@H](C)C[C@H](NS(=O)(=O)C2COC2)[C@@H]1CO[C@H]1CC[C@@]2(c3ncc(F)cn3)C[C@H]2C1 [Example 40, methyl (2R,3S,5R)-2-((((1S,3S,6R)-6-(5-fluoropyrimidin-2-yl)bicyclo[4.1.0]heptan-3-yl)oxy)methyl)-5-methyl-3-(oxetane-3-sulfonamido)pyrrolidine-1-carboxylate]",4.4
5,"COC(=O)N1[C@H](C)C[C@H](NS(=O)(=O)N(C)C)[C@@H]1COC1CCC2(c3ncccn3)C(C1)C2(F)F (stereo partly drawn) [Example 7, methyl (2R,3S,5R)-2-(((7,7-difluoro-6-(pyrimidin-2-yl)bicyclo[4.1.0]heptan-3-yl)oxy)methyl)-3-((N,N-dimethylsulfamoyl)amino)-5-methylpyrrolidine-1-carboxylate]",9390
6,"C[C@@H]1C[C@H](NS(C)(=O)=O)[C@H](CO[C@H]2CC[C@@]3(c4ncc(F)cn4)C[C@H]3C2)N1C(=O)OCC1CC(F)C1 (stereo partly drawn) [Example 49, (3-fluorocyclobutyl)methyl (2R,3S,5R)-2-((((1S,3S,6R)-6-(5-fluoropyrimidin-2-yl)bicyclo[4.1.0]heptan-3-yl)oxy)methyl)-5-methyl-3-(methylsulfonamido)pyrrolidine-1-carboxylate]",1.1
7,"COC(=O)N1[C@H](C)C[C@H](NS(=O)(=O)C(F)F)[C@@H]1CO[C@H]1CC[C@@]2(c3ncc(F)cn3)C[C@H]2C1 [Example 48, methyl (2R,3S,5R)-3-((difluoromethyl)sulfonamido)-2-((((1S,3S,6R)-6-(5-fluoropyrimidin-2-yl)bicyclo[4.1.0]heptan-3-yl)oxy)methyl)-5-methylpyrrolidine-1-carboxylate]",1.4
8,"COC(=O)N1[C@H](C)C[C@H](NS(=O)(=O)N2CCC2)[C@@H]1CO[C@H]1CC[C@@]2(c3ncc(F)cn3)C[C@H]2C1 [Example 39, methyl (2R,3S,5R)-3-(azetidine-1-sulfonamido)-2-((((1S,3S,6R)-6-(5-fluoropyrimidin-2-yl)bicyclo[4.1.0]heptan-3-yl)oxy)methyl)-5-methylpyrrolidine-1-carboxylate]",2
9,"COC(=O)N1[C@H](C)C[C@H](NS(=O)(=O)CC(C)C)[C@@H]1CO[C@H]1CC[C@@]2(c3ncc(F)cn3)C[C@H]2C1 [Example 35, methyl (2R,3S,5R)-2-((((1S,3S,6R)-6-(5-fluoropyrimidin-2-yl)bicyclo[4.1.0]heptan-3-yl)oxy)methyl)-5-methyl-3-((2-methylpropyl)sulfonamido)pyrrolidine-1-carboxylate]",46.5
10,"CCC(C)S(=O)(=O)N[C@H]1C[C@@H](C)N(C(=O)OC)[C@H]1CO[C@H]1CC[C@@]2(c3ncc(F)cn3)C[C@H]2C1 (stereo partly drawn) [Example 41, methyl (2R,3S,5R)-2-((((1S,3S,6R)-6-(5-fluoropyrimidin-2-yl)bicyclo[4.1.0]heptan-3-yl)oxy)methyl)-5-methyl-3-((1-methylpropyl)sulfonamido)pyrrolidine-1-carboxylate]",8

# Further lines, results first:
row,IC50 [nM],Structure (SMILES)
1,9.2,"C[C@@H]1C[C@H](NS(C)(=O)=O)[C@H](CO[C@H]2CC[C@@]3(c4ncc(F)cn4)C[C@H]3C2)N1C(=O)O[C@H]1COC[C@@H]1F [Example 56, (3S,4S)-4-fluorotetrahydrofuran-3-yl (2R,3S,5R)-2-((((1S,3S,6R)-6-(5-fluoropyrimidin-2-yl)bicyclo[4.1.0]heptan-3-yl)oxy)methyl)-5-methyl-3-(methylsulfonamido)pyrrolidine-1-carboxylate]"
2,50.7,"COC(=O)N1[C@H](C)C[C@H](NS(C)(=O)=O)[C@@H]1CO[C@H]1CC[C@@]2(c3nccs3)C[C@H]2C1 (single isomer, unassigned) [Example 146]"
3,2.3,"C[C@@H]1C[C@H](NS(C)(=O)=O)[C@H](CO[C@H]2CC[C@@]3(c4ncc(F)cn4)C[C@H]3C2)N1C(=O)OCC1(F)CC1 [Example 61, (1-fluorocyclopropyl)methyl (2R,3S,5R)-2-((((1S,3S,6R)-6-(5-fluoropyrimidin-2-yl)bicyclo[4.1.0]heptan-3-yl)oxy)methyl)-5-methyl-3-(methylsulfonamido)pyrrolidine-1-carboxylate]"
4,3.3,"CCS(=O)(=O)N[C@H]1CCCN(C(=O)OC(C)C)[C@H]1COC1CC[C@@]2(c3ncc(F)cn3)CC2C1 (stereo partly drawn) [Example 126, isopropyl (2R,3S)-3-(ethylsulfonamido)-2-(((6-(5-fluoropyrimidin-2-yl)bicyclo[4.1.0]heptan-3-yl)oxy)methyl)piperidine-1-carboxylate]"
5,6,"C[C@@H]1C[C@H](NS(C)(=O)=O)[C@H](CO[C@H]2CC[C@@]3(c4ncc(F)cn4)C[C@H]3C2)N1C(=O)OCC(F)C1CCC1 (stereo partly drawn) [Example 54, 2-cyclobutyl-2-fluoroethyl (2R,3S,5R)-2-((((1S,3S,6R)-6-(5-fluoropyrimidin-2-yl)bicyclo[4.1.0]heptan-3-yl)oxy)methyl)-5-methyl-3-(methylsulfonamido)pyrrolidine-1-carboxylate]"
6,1.2,"COC(=O)N1[C@H](C)C[C@H](NS(=O)(=O)C(F)F)[C@@H]1CO[C@H]1CC[C@@]2(c3ncc(Cl)cn3)C[C@H]2C1 (single isomer, unassigned) [Example 78]"
7,0.71,"C[C@@H]1C[C@H](NS(C)(=O)=O)[C@H](CO[C@H]2CC[C@@]3(c4ncc(F)cn4)C[C@H]3C2)N1C(=O)OCC1CC1(F)F (stereo partly drawn) [Example 59, (2,2-difluorocyclopropyl)methyl (2R,3S,5R)-2-((((1S,3S,6R)-6-(5-fluoropyrimidin-2-yl)bicyclo[4.1.0]heptan-3-yl)oxy)methyl)-5-methyl-3-(methylsulfonamido)pyrrolidine-1-carboxylate]"
